In patent US8664201B2 (priority 2008, dated 2014):
“And” between values parts separate entries of the source, which are not always exact repeats. Identical values can stand only once. Counter-ions that a name gives are not always drawn. Marks after values point to notes of the source that are not given here.

What was measured:
[1] = Acute toxicity, three daily IV bolus injections in mice (IPM lysine salt, IPM parent control); format: in vivo; settings: for intravenous LD10 / intravenous LD50: IV daily × 3 days
Experimental: This example describes the evaluation of the acute toxicity of isophosphoramide mustard lysine salt, following three days of daily intravenous (bolus) injection in mice. This study consisted of two phases.
The second main study phase consisted of eight treatment groups (five mice/sex/group) that received the test article as a single daily dose for three consecutive days at respective dose levels of 50, 75, 100, 200, 300, 400, 500, and 600 mg/kg. An additional group (5 mice/sex) served as a parent compound control and received the isophosphoramide mustard parent compound in the same manner, at a dose level of 150 mg/kg. The vehicle was 0.9% sodium chloride for injection, USP and all doses were at a constant volume of 15 mL/kg.
Observations for mortality, morbidity, and the availability of food and water were conducted twice daily for all animals. Observations for clinical signs were conducted daily during the study (approximately one and four hours postdose on Days 1, 2, and 3, and once daily on non-dosing days). Body weights for all surviving animals were measured and recorded the second day after receipt, prior to randomization, and on Days-1 and 7. Body weights also were measured on all surviving main study phase animals on Day 14. Macroscopic evaluations were performed on each main study animal at necropsy (Day 15).
Eight main study treatment groups received the test article as a single daily dose for three consecutive days via intravenous (bolus) injection at respective dose levels of 50, 75, 100, 200, 300, 400, 500, and 600 mg/kg. An additional group (five mice/sex) served as a parent compound control and received the Isophosphoramide Mustard Parent Compound in the same manner at a dose level of 150 mg/kg. All doses were at a volume of 15 mL/kg and based on the most recent body weight.

[2] = test system: advanced cancer; assay: Treatment of patients with advanced cancer with IPM.(LYS)2; format: in vivo, human
Experimental: One patient (cohort) was treated per dose escalation every 21-28 days to allow for toxicity presentation. Doses were escalated by 40% if there were no serious toxic events.

[3] = test system: Lewis lung murine tumor; settings: mouse, in vivo, ip
[4] = test system: MX-1 Human Breast Tumor; settings: mouse, in vivo, ip
[5] = Estimated comparable human intravenous dosages

O=P(O)(NCCCl)NCCCl [IPM lysine salt, isophosphoramide mustard lysine salt]
Cumulative Mortality, female ([1]; 50 mg/kg IV daily × 3): 0/5
Cumulative Mortality, male ([1]; 50 mg/kg IV daily × 3): 0/5
Cumulative Mortality, total ([1]; 50 mg/kg IV daily × 3): No mice died
Cumulative Mortality, total ([1]; 50 mg/kg IV daily × 3, listed as IPM Lysine Salt): No animals died and 0/10
Cumulative Mortality, female ([1]; 75 mg/kg IV daily × 3): 0/5
Cumulative Mortality, male ([1]; 75 mg/kg IV daily × 3): 0/5
Cumulative Mortality, total ([1]; 75 mg/kg IV daily × 3): No mice died
Cumulative Mortality, total ([1]; 75 mg/kg IV daily × 3, listed as IPM Lysine Salt): No animals died and 0/10
Cumulative Mortality, female ([1]; 100 mg/kg IV daily × 3): 0/5
Cumulative Mortality, male ([1]; 100 mg/kg IV daily × 3): 1/5
Cumulative Mortality, total ([1]; 100 mg/kg IV daily × 3): 1 of 10
Cumulative Mortality, total ([1]; 100 mg/kg IV daily × 3, listed as IPM Lysine Salt): 1 of 10 and 1/10
Cumulative Mortality, female ([1]; 200 mg/kg IV daily × 3): 3/5
Cumulative Mortality, male ([1]; 200 mg/kg IV daily × 3): 0/5
Cumulative Mortality, total ([1]; 200 mg/kg IV daily × 3): No mice died
Cumulative Mortality, total ([1]; 200 mg/kg IV daily × 3, listed as IPM Lysine Salt): 3 of 10 and 3/10
Cumulative Mortality, female ([1]; 300 mg/kg IV daily × 3): 5/5
Cumulative Mortality, male ([1]; 300 mg/kg IV daily × 3): 4/5
Cumulative Mortality, total ([1]; 300 mg/kg IV daily × 3): 9 out of 10
Cumulative Mortality, total ([1]; 300 mg/kg IV daily × 3, listed as IPM Lysine Salt): 9 of 10 and 9/10
Cumulative Mortality, female ([1]; 400 mg/kg IV daily × 3): 5/5
Cumulative Mortality, male ([1]; 400 mg/kg IV daily × 3): 5/5
Cumulative Mortality, total ([1]; 400 mg/kg IV daily × 3): all mice died
Cumulative Mortality, total ([1]; 400 mg/kg IV daily × 3, listed as IPM Lysine Salt): all animals died and 10/10
Cumulative Mortality, female ([1]; 500 mg/kg IV daily × 3): 5/5
Cumulative Mortality, male ([1]; 500 mg/kg IV daily × 3): 5/5
Cumulative Mortality, total ([1]; 500 mg/kg IV daily × 3): all mice died
Cumulative Mortality, total ([1]; 500 mg/kg IV daily × 3, listed as IPM Lysine Salt): all animals died and 10/10
Cumulative Mortality, female ([1]; 600 mg/kg IV daily × 3): 5/5
Cumulative Mortality, male ([1]; 600 mg/kg IV daily × 3): 5/5
Cumulative Mortality, total ([1]; 600 mg/kg IV daily × 3): all mice died
Cumulative Mortality, total ([1]; 600 mg/kg IV daily × 3, listed as IPM Lysine Salt): all animals died and 10/10
Sub-acute IV LD10 ([1]; Mouse): 133 mg/kg/day
intravenous LD10 ([1]; female mice): 179 mg/kg
intravenous LD50 ([1]; female mice): 197 mg/kg
macroscopic findings at necropsy ([1]; main study, Day 15): No treatment-related macroscopic findings
intravenous LD10 ([1]; male mice): 140 mg/kg
intravenous LD50 ([1]; male mice): 247 mg/kg
intravenous LD10 ([1]; mice, combined sexes): 133 mg/kg
intravenous LD50 ([1]; mice, combined sexes): 220 mg/kg
LD10, intravenous three day dose schedule ([1]; mouse, × 3 days): 133 mg/kg/day
serious toxicity in patients ([2]; 30, 42, 59 and 83 mg/m^2 daily IV for 3 days, one patient each): without serious toxicity
disease response ([2]; one patient with rectal cancer, 83 mg/m^2 daily IV for 3 days): stabilization of their disease
MTD Dosage [3]: 93.2 mg/kg/dose
T-C [3]: 8.3* days
increase of the MTD (mg/kg/dose) of the salt over parent drug [3]: 2 fold
MTD Dosage [4]: 93.2 mg/kg/dose
T-C [4]: 10.2* days
superiority to IPM at comparable dosing [4]: 8 fold
estimated MTD in humans (1/10 the LD10 in mice) [5]: 40 mg/m^2/d
Comparable Human IV Dosage ([5]; estimated from mouse sub-acute IV LD10): 40 mg/m^2/d
